From patent US9453026B2, “ACC inhibitors and uses thereof” (Gilead Apollo, Inc., priority 2011, dated 2016)
Converted amounts (≈) assume the structure as drawn. Where two headings read alike, the source gives them in different places.

Tests used:
[1] = tested on: ACC2; details: ACC2 isolated from rat, mouse, monkey and human; cited from earlier work
[2] = tested on: ACC1; details: ACC1 isolated from rat, mouse, monkey and human; cited from earlier work
[3] = tested on: target protein (ACC); experiment: Thermal Shift Assay (TSA); type: binding; details: FIG. 3
Source text: 103, 43, 15835-15840, the entirety of which is incorporated herein by reference.

[4] = tested on: LNCaP (prostate cancer cell line) cells; experiment: Cancer Cell Viability Assay; type: cell-based, human; details: concentration of 5 uM, FIG. 5
Description: Compounds of the invention were also assayed in a Cancer Cell Viability Assay as described by Beckers et al. “Chemical Inhibition of Acetyl-CoA Carboxylase Induces Growth Arrest and Cytotoxicity Selectively in Cancer Cells” Cancer Res. (2007) 67, 8180-8187. An exemplary procedure for the assay, which measures the percentage of cancer cells surviving following administration of inhibitor compounds, follows.
LNCaP (prostate cancer cell line) cells plated at 4×10^5 per 6 cm dish were incubated at 37° C., and the following day they were treated with increasing concentrations of inhibitor compounds and incubated. Viable cells and the percentage of dead cells was counted and calculated every day for 5 days from day 0, using trypan blue staining.

[5] = molecular target: ACC1 (Homo sapiens, UniProt Q13085); experiment: In vitro ACC1 inhibition assay (ADP-Glo); type: biochemical; details: read-out: ACC1
In short: (§1)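 Enzyme (human ACC1 or ACC2) and compound, serially diluted 1:3 over 11 points from a 600 uM DMSO stock, were preincubated 15 min before substrate addition.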

[6] = tested on: Candida species; experiment: Anti-Fungal Activity Assay, summary over Candida species; type: cell-based; details: summary of Table 3
Description: (§2) Compounds of the present invention were evaluated in an Anti-Fungal Activity Assay. An exemplary procedure for the assay, which measures the susceptibility of various Candida species to anti-fungal compounds, follows. Compounds to be tested (including fluconazole and amphotericin B) were dissolved in DMSO to obtain a solution having a concentration of 1 mg/mL. […] All species were grown from frozen stock by directly plating on to freshly prepared Sabouraud Dextrose agar (BD, Difco) and incubated overnight in ambient air at 35° C. for 24 h. A direct suspension was prepared in RPMI 1640+MOPS (Lonza, Biowhittaker) by taking individual colonies from the overnight cultures using sterile swabs soaked in sterile saline. The concentration of the suspension was determined using pre-determined standard curves. […] The original CLSI guidelines focused on reading Candida MICs after 48 h of incubation. As reading after only 24 h offers a clear advantage of patient care, QC limits are being established for all drugs at 24 h. That being said there are no known interpretive breakpoints for amphotericin B at 24 h and the current fluconazole interpretive breakpoints are based on a 48 h reading. The MIC breakpoints for the Pharmaron test compounds were recorded at 48 h, and for the soraphen the 24 h time-point was added. All MIC determinations were achieved by visually comparing the growth found in the antibiotic challenged wells to that of the growth control.

[7] = molecular target: ACC2 (Homo sapiens, UniProt O00763); experiment: In vitro ACC2 inhibition assay (ADP-Glo); type: biochemical; details: read-out: ACC2
ACC2 (Homo sapiens, UniProt O00763), sequence (O00763 whole entry, species assumed): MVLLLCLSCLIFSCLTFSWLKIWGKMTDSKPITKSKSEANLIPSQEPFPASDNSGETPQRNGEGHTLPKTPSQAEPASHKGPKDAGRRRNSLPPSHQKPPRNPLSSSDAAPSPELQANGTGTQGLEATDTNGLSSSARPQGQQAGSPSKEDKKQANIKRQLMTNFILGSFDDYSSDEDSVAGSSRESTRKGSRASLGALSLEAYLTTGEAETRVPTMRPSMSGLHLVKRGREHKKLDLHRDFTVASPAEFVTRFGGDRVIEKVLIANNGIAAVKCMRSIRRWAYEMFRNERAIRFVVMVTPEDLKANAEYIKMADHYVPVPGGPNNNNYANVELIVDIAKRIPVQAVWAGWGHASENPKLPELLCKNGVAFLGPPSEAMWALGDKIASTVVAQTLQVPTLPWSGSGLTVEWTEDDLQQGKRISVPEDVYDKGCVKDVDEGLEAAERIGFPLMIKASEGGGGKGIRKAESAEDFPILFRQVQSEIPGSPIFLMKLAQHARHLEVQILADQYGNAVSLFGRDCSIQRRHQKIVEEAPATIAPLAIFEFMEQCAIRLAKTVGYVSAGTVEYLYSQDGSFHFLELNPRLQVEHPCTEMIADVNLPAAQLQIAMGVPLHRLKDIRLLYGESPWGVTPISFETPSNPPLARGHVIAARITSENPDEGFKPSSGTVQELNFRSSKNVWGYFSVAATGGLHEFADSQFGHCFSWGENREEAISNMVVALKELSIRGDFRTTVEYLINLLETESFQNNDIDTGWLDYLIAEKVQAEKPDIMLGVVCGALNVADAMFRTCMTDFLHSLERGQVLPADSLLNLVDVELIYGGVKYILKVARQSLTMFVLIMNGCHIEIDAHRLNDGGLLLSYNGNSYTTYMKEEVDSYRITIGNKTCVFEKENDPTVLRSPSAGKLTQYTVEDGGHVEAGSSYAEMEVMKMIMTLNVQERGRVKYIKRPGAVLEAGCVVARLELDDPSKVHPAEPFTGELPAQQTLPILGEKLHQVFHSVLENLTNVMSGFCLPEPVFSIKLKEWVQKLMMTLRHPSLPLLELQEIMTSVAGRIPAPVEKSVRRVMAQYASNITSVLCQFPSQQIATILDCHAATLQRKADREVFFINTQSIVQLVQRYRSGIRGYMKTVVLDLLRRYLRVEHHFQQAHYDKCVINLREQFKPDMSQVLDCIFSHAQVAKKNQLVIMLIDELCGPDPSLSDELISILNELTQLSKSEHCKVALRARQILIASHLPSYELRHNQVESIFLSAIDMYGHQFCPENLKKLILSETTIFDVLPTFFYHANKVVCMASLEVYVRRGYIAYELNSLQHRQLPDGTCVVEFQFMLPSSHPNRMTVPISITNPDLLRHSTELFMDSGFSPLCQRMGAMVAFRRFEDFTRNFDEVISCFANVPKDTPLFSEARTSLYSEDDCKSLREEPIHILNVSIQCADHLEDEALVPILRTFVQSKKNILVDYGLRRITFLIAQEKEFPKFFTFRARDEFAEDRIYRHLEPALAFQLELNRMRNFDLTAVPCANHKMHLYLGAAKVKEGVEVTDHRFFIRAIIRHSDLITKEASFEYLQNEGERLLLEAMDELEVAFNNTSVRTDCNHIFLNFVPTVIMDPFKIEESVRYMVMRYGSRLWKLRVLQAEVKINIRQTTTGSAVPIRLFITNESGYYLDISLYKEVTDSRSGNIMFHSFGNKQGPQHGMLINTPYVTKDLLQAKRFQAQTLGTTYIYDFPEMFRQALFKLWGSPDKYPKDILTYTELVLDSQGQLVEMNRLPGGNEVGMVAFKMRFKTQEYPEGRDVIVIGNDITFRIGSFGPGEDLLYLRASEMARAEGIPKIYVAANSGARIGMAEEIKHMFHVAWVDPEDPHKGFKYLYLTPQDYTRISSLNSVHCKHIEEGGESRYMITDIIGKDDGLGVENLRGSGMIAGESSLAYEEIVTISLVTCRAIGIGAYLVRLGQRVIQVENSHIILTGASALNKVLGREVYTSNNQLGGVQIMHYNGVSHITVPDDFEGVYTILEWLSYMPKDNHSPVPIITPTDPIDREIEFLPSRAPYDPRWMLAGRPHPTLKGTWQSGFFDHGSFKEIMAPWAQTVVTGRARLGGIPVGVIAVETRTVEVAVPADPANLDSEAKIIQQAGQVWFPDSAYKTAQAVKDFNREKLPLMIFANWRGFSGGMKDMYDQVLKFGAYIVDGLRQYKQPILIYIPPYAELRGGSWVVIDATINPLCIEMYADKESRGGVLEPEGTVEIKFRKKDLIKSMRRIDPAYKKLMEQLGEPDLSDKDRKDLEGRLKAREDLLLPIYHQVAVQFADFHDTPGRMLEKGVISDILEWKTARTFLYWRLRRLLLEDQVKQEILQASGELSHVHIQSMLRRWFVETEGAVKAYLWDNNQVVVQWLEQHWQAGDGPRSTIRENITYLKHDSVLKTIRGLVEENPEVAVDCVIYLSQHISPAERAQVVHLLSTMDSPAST
In short: as §1

[8] = tested on: HepG2 cells; experiment: [14C] Acetate Incorporation HepG2 Cellular Assay; type: cell-based; details: Homo sapiens; HepG2 cells, FIG. 4; read-out: IC50, incorporation of isotopically labeled acetate into fatty acids
Description: Compounds of the present invention were evaluated in a [^14C] Acetate Incorporation Assay. An exemplary procedure for the assay, which measures the incorporation of isotopically labeled acetate into fatty acids, follows. HepG2 cells were maintained in T-75 flasks containing DMEM supplemented with 2 mM 1-glutamine, penicillin G (100 units/ml), streptomycin 100 μg/ml with 10% FBS and incubated in a humidified incubator with 5% CO2 at 37° C. Cells were fed every 2-3 days. On Day 1. cells were seeded in 24 well plates at a density of 1.2×10^5 cells/ml/well with the growth medium. On Day 3 the medium was replaced with fresh medium containing 10% FBS. On Day 4 the medium was replaced with 0.5 ml of fresh medium containing test compound (in DMSO; final [DMSO] is 0.5%) and the cells were incubated at 37° C. for 1 hour. To one copy of plate, 4 ul of [2-^14C]acetate (56 mCi/mmol; 1 mCi/ml; PerkinElmer) was added and the cells were incubated at 37° C., 5% CO2 for 5 hrs. To a second copy of plate, 4 ul of cold acetate were added and the cells were incubated at 37° C., 5% CO2 for 5 hrs. This plate was used for protein concentration measurement. Medium was removed and placed in a 15 ml centrifuge tube (BD, Falcon/352096). Cells were rinsed with 1 ml PBS, then aspirated, and the rinse and aspiration steps were repeated. 0.5 ml of 0.1N NaOH were added to each well and let sit at RT to dissolve cell monolayer. The remaining cell suspension was pooled with medium. For the protein determination plate, an aliquot was removed for protein determination (25 ul). […] 5 ml petroleum ether was added per tube, shaken vigorously, centrifuged at 1000 rpm for 5 min, and 500 uL of the petroleum ether layer was transferred to tubes for Microbeta reading, then 2 ml Aquasol-2 were added to each tube, the tubes were shaken and counted with a Microbeta Liquid Scintillation Counter (Perkin Elmer).
The remaining petroleum ether layer was discarded and the aqueous phase reserved for fatty acid extractions. […] 2 ml of Aquasol-2 was added to each vial, and the vials were shaken and counted on a scintillation counter.

[9] = tested on: C. krusei ATCC 6258; experiment: Anti-Fungal Activity Assay (broth microtiter MIC); type: cell-based; details: 3 replicates, test compounds read at 48 h
Description: as §2

[10] = tested on: C. albicans ATCC 90028; experiment: Anti-Fungal Activity Assay (broth microtiter MIC); type: cell-based; details: 3 replicates, test compounds read at 48 h
Description: as §2

[11] = tested on: C. parapsilosis ATCC 22019; experiment: Anti-Fungal Activity Assay (broth microtiter MIC); type: cell-based; details: 3 replicates, test compounds read at 48 h
Description: as §2

[12] = tested on: fatty acid synthesis; experiment: In Vivo Fatty Acid Synthesis Study ([C14]-acetate incorporated into rat liver tissue); details: FIG. 16
Description: Compounds of the present invention were also assayed in an In Vivo Fatty Acid Synthesis Study as described by Harwood et al. “Isozyme-nonselective N-Substituted Bipiperidylcarboxamide Acetyl-CoA Carboxylase Inhibitors Reduce Tissue Malonyl-CoA Concentrations, Inhibit Fatty Acid Synthesis, and Increase Fatty Acid Oxidation in Cultured Cells and in Experimental Animals” Journal of Biological Chemistry (2008) 278, 37099-37111. An exemplary procedure for the assay, which measures the amount of radioactive [C^14]-acetate incorporated into rat liver tissue, follows.
Animals given food ad water ad libitum were treated orally at a volume of 1.0 mL/200 g body weight (rat) with either an aqueous solution containing 0.5% methylcellulose (vehicle), or an aqueous solution containing 0.5% methylcellulose plus test compound. One to four hours after compound administration, animals received an intraperitoneal injection of 0.5 mL of [C^14]-acetate (64 uCi/mL; […]). […] The pooled organic fractions were transferred to liquid scintillation vials, dried under nitrogen, dissolved in 7 mL of Aquasol liquid scintillation fluid, and assessed for radioactivity using a Beckman 6500 liquid scintillation counter. Results were recorded as disintigrations per minute (DPM) per milligram of tissue.

[13] = tested on: ACC; experiment: IC50 quoted for Soraphen A in the thermal shift text; type: biochemical
[14] = Pichia kudriavzevii, ATCC6258, 48 h, read-out: MIC
[15] = Candida albicans, ATCC90028, 48 h, read-out: MIC
[16] = Lodderomyces parapsilosis, ATCC22019, 48 h, read-out: MIC

| Compound | IC50 [1] [nM] | IC50 [2] [nM] | thermal melting point change compared with Soraphen A [3] | cell population growth [4] | IC50 [5] [nM] | anti-fungal activity MICs [6] | IC50 [7] [nM] | IC50 [8] [nM] | MIC [9] [µg/mL] | MIC [9, 14] [µg/mL] | MIC [10] [µg/mL] | MIC [10, 15] [µg/mL] | MIC [11] [µg/mL] | MIC [11, 16] [µg/mL] | fatty acid (FA) synthesis in rats [12] | IC50 [13] [nM] |
| --- | --- | --- | --- | --- | --- | --- | --- | --- | --- | --- | --- | --- | --- | --- | --- | --- |
| O=C(c1c2ccccc2cc2ccccc12)N1CCC(N2CCC[C@@H](C(=O)N3CCOCC3)C2)CC1 [CP-640186] | ~60 | ~60 |  |  |  |  |  |  |  |  |  |  |  |  |  |  |
| COc1ccccc1[C@@H](Cn1c(=O)n(C(C)(C)C(=O)O)c(=O)c2c(C)c(-c3ncco3)sc21)OC(C)C [I-158, 2-[1-[(2S)-2-(2-methoxyphenyl)-2-(propan-2-yloxy)ethyl]-5-methyl-6-(1,3-oxazol-2-yl)-2,4-dioxo-1H,2H,3H,4H-thieno[2,3-d]pyrimidin-3-yl]-2-methylpropanoic acid] |  |  | equivalent to that of Soraphen A | completely inhibit cell population growth | < 100 | low ug/mL range | < 100 | < 100 | 2 (≈ 3.79 µM) | 2 (≈ 3.79 µM) | 2 (≈ 3.79 µM) | 2 (≈ 3.79 µM) | 8 (≈ 15.2 µM) | 8 (≈ 15.2 µM) |  |  |
| COc1ccccc1[C@H](Cn1c(=O)n(C(C)(C)C(N)=O)c(=O)c2c(C)c(-c3ncco3)sc21)OC(C)C [I-174, 2-[1-[(2R)-2-(2-methoxyphenyl)-2-(propan-2-yloxy)ethyl]-5-methyl-6-(1,3-oxazol-2-yl)-2,4-dioxo-1H,2H,3H,4H-thieno[2,3-d]pyrimidin-3-yl]-2-methylpropanamide] |  |  | equivalent to that of Soraphen A |  | < 100 | low ug/mL range | < 100 | < 100 | 2 (≈ 3.8 µM) | 2 (≈ 3.8 µM) | 2 (≈ 3.8 µM) | 2 (≈ 3.8 µM) | 8 (≈ 15.2 µM) | 8 (≈ 15.2 µM) |  |  |
| COc1ccccc1[C@H](Cn1c(=O)n(C(C)(C)C(=O)O)c(=O)c2c(C)c(-c3ncco3)sc21)O[C@H]1CC[C@@H](O)CC1 [I-278, 2-[1-[(2R)-2-[(4-hydroxycyclohexyl)oxy]-2-(2-methoxyphenyl)ethyl]-5-methyl-6-(1,3-oxazol-2-yl)-2,4-doxo-1H,2H,3H,4H-thieno[2,3-d]pyrimidin-3-yl]-2-methylpropanoic acid] |  |  |  |  | < 100 |  | < 100 |  |  |  |  |  |  |  | dose-dependent decrease in FA synthesis |  |
| CO[C@H]1CCCC[C@@H](c2ccccc2)OC(=O)[C@@H](C)[C@@]2(O)O[C@H]([C@@H](C)[C@H](O)[C@H]2OC)[C@@H](C)/C=C/[C@H]1OC [Soraphen A] |  |  |  |  |  |  |  |  |  |  |  |  |  |  |  | 4 |
